Test system: Human patients with short bowel syndrome
Experiment: Example 1: kidney diagnostic biomarkers (urea nitrogen, creatinine, GFR) in short bowel syndrome patients, every four weeks for 24 weeks
Type: in vivo
Procedure: Human patients with short bowel syndrome were divided into three groups: a control group (16 total individuals) to receive placebo, an experimental group (35 total individuals) to receive teduglutide at 0.05 mg/kg/day throughout the study, and an experimental group (32 total individuals) to receive teduglutide at 0.1 mg/kg/day throughout the study. Patients were treated by subcutaneous injection of placebo or the appropriate dose of teduglutide. As individuals with short bowel syndrome are likely to experience associated liver and kidney disease, known biomarkers of liver and kidney function were monitored every four weeks, for 24 weeks. The liver biomarkers tested included total bilirubin, ALT and AST and ALP. The kidney biomarkers tested included urea nitrogen, creatinine and GFR. Before administration of placebo or teduglutide, diagnostic biomarker levels were tested to establish a baseline for each individual.
To visualize the effect of GLP-2 on the levels of the diagnostic biomarkers, the average change from baseline was calculated for the placebo and teduglutide treated groups for each visit after a baseline was established. The average change from baseline of each group is depicted in FIGS. […]. The numerical figures for each diaanostic biomarker at each time point are depicted in Table 1.
The raw data for this sorting is reproduced in Table 2 below.

[1] = Week 12, range >5%, teduglutide 0.1 mg/kg/day
[2] = Week 12, range −5%<= and <=5%, teduglutide 0.05 mg/kg/day
[3] = Week 12, range −5%<= and <=5%, teduglutide 0.1 mg/kg/day
[4] = Week 16, range <−5%, teduglutide 0.05 mg/kg/day
[5] = Week 16, range <−5%, teduglutide 0.1 mg/kg/day
[6] = Week 16, range >5%, teduglutide 0.05 mg/kg/day
[7] = Week 16, range >5%, teduglutide 0.1 mg/kg/day
[8] = Week 16, range −5%<= and <=5%, teduglutide 0.05 mg/kg/day
[9] = Week 16, range −5%<= and <=5%, teduglutide 0.1 mg/kg/day
[10] = Week 20, range <−5%, teduglutide 0.05 mg/kg/day
[11] = Week 20, range <−5%, teduglutide 0.1 mg/kg/day
[12] = Week 20, range >5%, teduglutide 0.05 mg/kg/day
[13] = Week 20, range >5%, teduglutide 0.1 mg/kg/day
[14] = Week 20, range −5%<= and <=5%, teduglutide 0.05 mg/kg/day
[15] = Week 20, range −5%<= and <=5%, teduglutide 0.1 mg/kg/day
[16] = Week 24, range <−5%, teduglutide 0.05 mg/kg/day
[17] = Week 24, range <−5%, teduglutide 0.1 mg/kg/day
[18] = Week 24, range >5%, teduglutide 0.05 mg/kg/day
[19] = Week 24, range >5%, teduglutide 0.1 mg/kg/day
[20] = Week 24, range −5%<= and <=5%, teduglutide 0.05 mg/kg/day
[21] = Week 24, range −5%<= and <=5%, teduglutide 0.1 mg/kg/day

## CC[C@H](C)[C@H](NC(=O)[C@H](Cc1ccccc1)NC(=O)[C@H](CC(=O)O)NC(=O)[C@H](CCCNC(=N)N)NC(=O)[C@H](C)NC(=O)[C@H](C)NC(=O)[C@H](CC(C)C)NC(=O)[C@H](CC(N)=O)NC(=O)[C@H](CC(=O)O)NC(=O)[C@H](CC(C)C)NC(=O)[C@@H](NC(=O)[C@@H](NC(=O)[C@H](CC(N)=O)NC(=O)[C@H](CCSC)NC(=O)[C@H](CCC(=O)O)NC(=O)[C@H](CC(=O)O)NC(=O)[C@H](CO)NC(=O)[C@H](Cc1ccccc1)NC(=O)[C@H](CO)NC(=O)CNC(=O)[C@H](CC(=O)O)NC(=O)CNC(=O)[C@@H](N)Cc1c[nH]cn1)[C@@H](C)O)[C@@H](C)CC)C(=O)N[C@@H](CC(N)=O)C(=O)N[C@@H](Cc1c[nH]c2ccccc12)C(=O)N[C@@H](CC(C)C)C(=O)N[C@H](C(=O)N[C@@H](CCC(N)=O)C(=O)N[C@H](C(=O)N[C@@H](CCCCN)C(=O)N[C@H](C(=O)N[C@H](C(=O)N[C@@H](CC(=O)O)C(=O)O)[C@@H](C)O)[C@@H](C)CC)[C@@H](C)O)[C@@H](C)CC [teduglutide]
[1]
  CREATININE (RATE BLANKED) change from baseline: patients in range, n(%): 17(53.1%)
  GFR change from baseline: patients in range, n(%): 9(28.1%)
  UREA NITROGEN change from baseline: patients in range, n(%): 14(43.8%)
[2]
  CREATININE (RATE BLANKED) change from baseline: patients in range, n(%): 4(11.4%)
  GFR change from baseline: patients in range, n(%): 5(14.3%)
  UREA NITROGEN change from baseline: patients in range, n(%): 4(11.4%)
[3]
  CREATININE (RATE BLANKED) change from baseline: patients in range, n(%): 4(12.5%)
  GFR change from baseline: patients in range, n(%): 10(31.3%)
  UREA NITROGEN change from baseline: patients in range, n(%): 3(9.4%)
[4]
  CREATININE (RATE BLANKED) change from baseline: patients in range, n(%): 8(22.9%)
  GFR change from baseline: patients in range, n(%): 7(20.0%)
  UREA NITROGEN change from baseline: patients in range, n(%): 12(34.3%)
[5]
  CREATININE (RATE BLANKED) change from baseline: patients in range, n(%): 10(31.3%)
  GFR change from baseline: patients in range, n(%): 12(37.5%)
  UREA NITROGEN change from baseline: patients in range, n(%): 9(28.1%)
[6]
  CREATININE (RATE BLANKED) change from baseline: patients in range, n(%): 8(22.9%)
  GFR change from baseline: patients in range, n(%): 11(31.4%)
  UREA NITROGEN change from baseline: patients in range, n(%): 10(28.6%)
[7]
  CREATININE (RATE BLANKED) change from baseline: patients in range, n(%): 12(37.5%)
  GFR change from baseline: patients in range, n(%): 12(37.5%)
  UREA NITROGEN change from baseline: patients in range, n(%): 9(28.1%)
[8]
  CREATININE (RATE BLANKED) change from baseline: patients in range, n(%): 12(34.3%)
  GFR change from baseline: patients in range, n(%): 10(28.6%)
  UREA NITROGEN change from baseline: patients in range, n(%): 6(17.1%)
[9]
  CREATININE (RATE BLANKED) change from baseline: patients in range, n(%): 8(25.0%)
  GFR change from baseline: patients in range, n(%): 6(18.8%)
  UREA NITROGEN change from baseline: patients in range, n(%): 12(37.5%)
[10]
  CREATININE (RATE BLANKED) change from baseline: patients in range, n(%): 9(25.7%)
  GFR change from baseline: patients in range, n(%): 10(28.6%)
  UREA NITROGEN change from baseline: patients in range, n(%): 13(37.1%)
[11]
  CREATININE (RATE BLANKED) change from baseline: patients in range, n(%): 7(21.9%)
  GFR change from baseline: patients in range, n(%): 11(34.4%)
  UREA NITROGEN change from baseline: patients in range, n(%): 12(37.5%)
[12]
  CREATININE (RATE BLANKED) change from baseline: patients in range, n(%): 10(28.6%)
  GFR change from baseline: patients in range, n(%): 10(28.6%)
  UREA NITROGEN change from baseline: patients in range, n(%): 7(20.0%)
[13]
  CREATININE (RATE BLANKED) change from baseline: patients in range, n(%): 13(40.6%)
  GFR change from baseline: patients in range, n(%): 8(25.0%)
  UREA NITROGEN change from baseline: patients in range, n(%): 11(34.4%)
[14]
  CREATININE (RATE BLANKED) change from baseline: patients in range, n(%): 8(22.9%)
  GFR change from baseline: patients in range, n(%): 7(20.0%)
  UREA NITROGEN change from baseline: patients in range, n(%): 7(20.0%)
[15]
  CREATININE (RATE BLANKED) change from baseline: patients in range, n(%): 9(28.1%)
  GFR change from baseline: patients in range, n(%): 10(31.3%)
  UREA NITROGEN change from baseline: patients in range, n(%): 6(18.8%)
[16]
  CREATININE (RATE BLANKED) change from baseline: patients in range, n(%): 8(22.9%)
  GFR change from baseline: patients in range, n(%): 8(22.9%)
[17]
  CREATININE (RATE BLANKED) change from baseline: patients in range, n(%): 11(34.4%)
  GFR change from baseline: patients in range, n(%): 6(18.8%)
  UREA NITROGEN change from baseline: patients in range, n(%): 14(43.8%)
[18]
  CREATININE (RATE BLANKED) change from baseline: patients in range, n(%): 9(25.7%)
  GFR change from baseline: patients in range, n(%): 10(28.6%)
  UREA NITROGEN change from baseline: patients in range, n(%): 7(20.0%)
[19]
  CREATININE (RATE BLANKED) change from baseline: patients in range, n(%): 9(28.1%)
  GFR change from baseline: patients in range, n(%): 14(43.8%)
  UREA NITROGEN change from baseline: patients in range, n(%): 13(40.6%)
[20]
  CREATININE (RATE BLANKED) change from baseline: patients in range, n(%): 9(25.7%)
  GFR change from baseline: patients in range, n(%): 8(22.9%)
  UREA NITROGEN change from baseline: patients in range, n(%): 2(5.7%)
[21]
  CREATININE (RATE BLANKED) change from baseline: patients in range, n(%): 9(28.1%)
  GFR change from baseline: patients in range, n(%): 9(28.1%)
  UREA NITROGEN change from baseline: patients in range, n(%): 2(6.3%)
Both groups receiving teduglutide
  percent of the group experiencing a decrease in GFR greater than 5% versus placebo: always less than the percent of the group receiving placebo
Groups receiving teduglutide
  creatinine levels, average change versus baseline (FIG. 9): remained stable or decreased slightly

From patent US20130072430A1, “METHODS FOR TREATMENT OR PROPHYLAXIS OF KIDNEY OR LIVER DYSFUNCTION” (NPS PHARMACEUTICALS, INC., priority 2010, published 2013)
